According to the supplement of paper PMC10307832:

Columns and labels:
Experiment in all cases: relative viability (nuclei count vs DMSO), 5 days (fraction); higher = more cells survive
Doxorubicin + Pemetrexed = compound: COc1cccc2c1C(=O)c1c(O)c3c(c(O)c1C2=O)C[C@@](O)(C(=O)CO)C[C@@H]3O[C@H]1C[C@H](N)[C@H](O)[C@H](C)O1 [Doxorubicin] + Nc1nc2[nH]cc(CCc3ccc(C(=O)N[C@@H](CCC(=O)O)C(=O)O)cc3)c2c(=O)[nH]1 [Pemetrexed] (partner 0.2 µM)
In short: (§1)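 One day after seeding in 1536-well plates, lung cancer cell lines were dosed by pin tool. Dosing was either single-drug or a fixed anchor-drug dose plus five library-drug doses (not always all listed) in √10 steps. After 5 days, nuclei were stained in one fix-and-stain step and counted on 4× images, and relative viability is the nuclei count of treated wells over that of vehicle wells, given as the median of duplicate plates.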

Doxorubicin + OSI-027 = compound: COc1cccc2c1C(=O)c1c(O)c3c(c(O)c1C2=O)C[C@@](O)(C(=O)CO)C[C@@H]3O[C@H]1C[C@H](N)[C@H](O)[C@H](C)O1 [Doxorubicin] + COc1cccc2cc(-c3nc([C@H]4CC[C@H](C(=O)O)CC4)n4ncnc(N)c34)[nH]c12 [OSI-027] (partner 0.5 µM)
In short: as §1

Doxorubicin + Lapatinib = compound: COc1cccc2c1C(=O)c1c(O)c3c(c(O)c1C2=O)C[C@@](O)(C(=O)CO)C[C@@H]3O[C@H]1C[C@H](N)[C@H](O)[C@H](C)O1 [Doxorubicin] + CS(=O)(=O)CCNCc1ccc(-c2ccc3ncnc(Nc4ccc(OCc5cccc(F)c5)c(Cl)c4)c3c2)o1 [Lapatinib] (partner 2 µM)
In short: as §1

BAY61-3606 + Foretinib = compound: COC1=C(C=C(C=C1)C2=CC3=NC=CN3C(=N2)NC4=C(C=CC=N4)C(=O)N)OC [BAY61-3606] + COc1cc2c(Oc3ccc(NC(=O)C4(C(=O)Nc5ccc(F)cc5)CC4)cc3F)ccnc2cc1OCCCN1CCOCC1 [Foretinib] (partner 0.25 µM)
In short: as §1

Row | Cell Line | relative viability (Doxorubicin + Pemetrexed; first compound 0.001 µM) | relative viability (Doxorubicin + Pemetrexed; first compound 0.003162 µM) | relative viability (Doxorubicin + Pemetrexed; first compound 0.01 µM) | relative viability (Doxorubicin + Pemetrexed; first compound 0.03162 µM) | relative viability (Doxorubicin + Pemetrexed; first compound 0.1 µM) | relative viability (Doxorubicin + OSI-027; first compound 0.001 µM) | relative viability (Doxorubicin + OSI-027; first compound 0.003162 µM) | relative viability (Doxorubicin + OSI-027; first compound 0.01 µM) | relative viability (Doxorubicin + OSI-027; first compound 0.03162 µM) | relative viability (Doxorubicin + OSI-027; first compound 0.1 µM) | relative viability (Doxorubicin + Lapatinib; first compound 0.001 µM) | relative viability (Doxorubicin + Lapatinib; first compound 0.003162 µM) | relative viability (Doxorubicin + Lapatinib; first compound 0.01 µM) | relative viability (Doxorubicin + Lapatinib; first compound 0.03162 µM) | relative viability (Doxorubicin + Lapatinib; first compound 0.1 µM) | relative viability (BAY61-3606 + Foretinib; first compound 0.02 µM) | relative viability (BAY61-3606 + Foretinib; first compound 0.06325 µM) | relative viability (BAY61-3606 + Foretinib; first compound 0.2 µM) | relative viability (BAY61-3606 + Foretinib; first compound 0.6325 µM) | relative viability (BAY61-3606 + Foretinib; first compound 2 µM)
1 | HCC-78 | 0.946 | 0.889 | 0.927 | 0.909 | 0.888 | 0.433 | 0.384 | 0.329 | 0.354 | 0.318 | 0.752 | 0.723 | 0.77 | 0.673 | 0.466 | 0.519 | 0.516 | 0.568 | 0.545 | 0.578
2 | HCC-366 | 0.301 | 0.18 | 0.171 | 0.201 | 0.161 |  | 1.01 | 0.934 | 0.85 | 0.423 |  | 1.09 | 1 | 0.168 | 0.145 | 0.934 | 0.942 | 0.93 | 0.924 | 0.893
3 | HCC-827 | 0.272 | 0.281 | 0.22 | 0.247 | 0.261 | 0.725 | 0.714 | 0.796 | 0.671 | 0.754 | 0.322 | 0.322 | 0.182 | 0.201 | 0.22 | 1.04 | 1.01 | 1.11 | 1.07 | 1.03
4 | HOP-62 | 0.356 | 0.34 | 0.302 | 0.25 | 0.349 | 0.832 | 0.759 | 0.798 | 0.719 | 0.767 | 0.811 | 1.15 | 1.02 | 1.1 | 0.853 | 1.05 | 1.04 | 1.1 | 1.13 | 0.815
5 | IA-LM |  |  |  |  |  |  |  |  |  |  | 0.845 | 0.957 | 0.638 | 0.18 | 0.112 | 1.23 | 1.09 | 1.01 | 1.13 | 0.959
6 | LC-2-ad | 0.267 | 0.255 | 0.264 | 0.305 | 0.288 | 0.629 | 0.691 | 0.587 | 0.386 | 0.292 | 0.838 | 0.958 | 0.935 | 0.697 | 0.255 | 1.05 | 0.83 | 0.971 | 1.11 | 0.653
7 | LCLC-97TM1 | 0.188 | 0.179 | 0.179 | 0.17 | 0.181 | 0.516 | 0.684 | 0.558 | 0.573 | 0.529 | 1.13 | 0.917 | 0.847 | 0.63 | 0.579 | 0.92 | 0.943 | 0.962 | 1.04 | 0.765
8 | LCLC-103H | 0.499 | 0.484 | 0.458 | 0.467 | 0.466 | 0.482 | 0.436 | 0.516 | 0.405 | 0.454 |  |  |  |  |  | 0.81 | 0.83 | 0.832 | 0.701 | 0.681
